Assay results reported in patent US7595345B2, “Vitamin D receptor modulators” (Eli Lilly and Company, priority 2003, dated 2009).
pEC50, pIC50: −log10 of the molar value.

Legend:
Format in all cases: cell-based
rat osteocalcin promoter = assay: OCN (osteocalcin) promoter assay; settings: RG-15 (ROS 17/2.8) cells, 48 hr treatment, luciferase
Protocol: 3. The OCN (Osteocalcin) Promoter Assay
The OCN Promoter Assay is an indicator and marker for osteoporosis. Desired assay results are EC50 less than or equal to […]. Preferred assay results are less than […].
(3) Materials and Method for the OCN Promoter Assay:
The activation of osteocalcin by VDR ligands was evaluated in a rat osteoblast-like cell line RG-15 (ROS 17/2.8) stably expressing rat osteocalcin promoter fused with luciferase reporter gene. The stable cell lines were established as reported before (Activation of Osteocalcin Transcription involves interaction of protein kinase A- and Protein kinase C-dependent pathways. Boguslawski, G., Hale, L. V., Yu, X.-P., Miles, R. R., Onyia, J. E., Santerre R. F., Chandrasekhar, S. J. Biol. Chem. 275, 999-1006, 2000). Confluent RG-15 cells maintained in DMEM/F-12 medium (3:1) containing 5% FBS, 300 µg/ml G418 and at 37° C. under 5% CO2/95% air atmosphere were trypsinized (0.25% trypsin) and plated into white opaque 96-well cell culture plates (25000 cells/well). After 24 hr, cells (in DMEM/F-12 medium+2% FBS) were treated with various concentrations of compounds, dissolved in DMSO. The final DMSO concentration remained at 0.01% (v/v). After 48 hr treatment, the medium was removed, cells were lysed with 50 µl of lysis buffer (From Luciferase reporter assay system, Roche Diagnostics, Indianapolis, Ind.) and assayed for luciferase activity using the Luciferase Reporter Gene Assay kit from Boehringer Mannheim as per manufacturer's specifications.

VDR (pGal4-VDR-LBD) = target: T1, VDR (pGal4-VDR-LBD) (Homo sapiens, UniProt P11473); assay: VDR CTF (Caco-2 cell co-transfection assay); settings: Caco-2 cells, Gal4-responsive reporter pFRLuc; surrogate for calcemic activity
T1 construct: the receptor expression vector pGal4-VDR-LBD (10 ng); expressed in transfected cells; host or cells: Caco-2 cells
T1 sequence (P11473 127-423 limits assumed): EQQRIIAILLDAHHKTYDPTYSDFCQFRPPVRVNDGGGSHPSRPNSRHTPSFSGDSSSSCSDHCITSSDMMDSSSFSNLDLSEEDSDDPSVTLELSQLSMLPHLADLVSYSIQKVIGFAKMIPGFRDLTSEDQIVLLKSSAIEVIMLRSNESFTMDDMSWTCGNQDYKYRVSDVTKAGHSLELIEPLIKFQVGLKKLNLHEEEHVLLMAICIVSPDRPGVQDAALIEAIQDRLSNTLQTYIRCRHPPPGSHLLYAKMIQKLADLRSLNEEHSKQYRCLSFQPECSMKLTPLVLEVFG
Protocol: 2. The Caco-2 Cell Co-Transfection Assay:
The Caco-2 cell assay is an indicator for the undesirable condition of hypercalcemia. This co-transfection assay is a surrogate assay for in vivo calcemic activity of VDR ligands. […] Preferred assay results are greater than 1000 nM.
(2) Materials and Method for the Caco-2 Cell Assay:
Caco-2 cells, grown in phenol red free, DMEM (Invitrogen, Carlsbad, Calif.) containing 10% charcoal-stripped FCS (Hyclone, Logan, Utah), were transfected with Fugene 6 reagent (Roche Diagnostics, Indianapolis, Ind.). Cells (5000/well) were plated 18 h before transfection in a 96 well plate. The Cells were transfected with Gal4-responsive reporter pFRLuc (150 ng, Stratagene, La Jolla Calif.) and the receptor expression vector pGal4-VDR-LBD (10 ng), along with Fugene 6 reagent (0.2 μl/well). The DNA-Fugene complex was formed by incubating the mixture for 30 min at room temperature. The cells were transfected in triplicate for 5 h, and treated with various concentrations of VDR ligands (form 0.01 nM to 10,000 nM concentration range) 18 h post-transfection. The luciferase activity was quantified using Steady-Glo reagent kit (Promega, Madison, Wis.) as per manufacturer's specifications.

[1] = system: IL-10 production in PBMCs; assay: Human IL-10 induction assay; settings: PBMC; TPA/PHA treated human PBMCs, IL-10 in supernatant by immunoassay
Description: 6. The IL-10 Induction Assay
This is an in vitro efficacy assay for psoriasis, abscess and adhesion. Psoriasis involves both keratinocytes and immune cells. IL-10 is a unique cytokine because it is anti-inflammatory and immunosuppressive. This assay tells us whether a VDRM is able to function as an agonist in PBMCs (primary blood mononuclear cells) or not. A lower EC50 value is desirable in this assay since a compound with a lower EC50 value will be a better agonist in PBMCs. […] 7. Other Compound Assay Standards An alternative measure of the efficacy of compounds of the invention for treatment of osteoporosis is a numerical ratio calculated as follows: • Dose Threshold needed to induce hypercalcemia • divided by • Dose Threshold needed for bone efficacy An alternative measure of the efficacy of compounds of the invention for treatment of psoriasis is a numerical ratio calculated as follows: • Dose Threshold needed to induce hypercalcemia • divided by • Dose Threshold needed to induce keratinocyte proliferation For the above ratios, Dose Thresholds are determined from dose response curve data. 8. The CaT1 (Calcium Transport Protein 1) Assay The CaT1 Assay is an indicator for the undesirable condition of hypercalcemia. The higher the EC50 values for a compound the less calcemic it will be in vivo. […] Preferred assay results are greater than 1000 nM. Details of the Assay Methods: (1) Materials and Method for RXR-VDR Heterodimerization Assay: Transfection Method:
(6) Materials and Method for Human IL-10 Induction Assay:
Isolation of peripheral blood mononuclear cells (PBMCs): • A. Collect 50 ml of human blood and dilute with media, RPMI-1640. • B. Prepare sterile tubes with ficol. • C. Add diluted blood to tubes. • D. Centrifuge. • E. Discard the top layer and collect the cells from middle layer. • F. Divide all cells into four tubes and add media. • G. Centrifuge. • H. Aspirate off media and resuspend. • I. Collect all cells • J. Centrifuge. at 1200 rpm for 10 minutes. • K. Resuspend in RPMI-1640 with 2% FBS and count cells
Stimulation of PBMC: • L. Prepare TPA in DMSO. • M. Dissolve PHA in water. • N. Plate TPA/PHA treated PBMCs in well plates. • O. Incubate.
Treatment: • P. Prepare all compound dilutions in plain RPMI-1640 media. • Q. Add diluted compound. • R. Incubate.
Sample Collection and Assay: • S. Remove all the cells by centrifugation and assay the supernatant for IL-10 by immunoassay. • 1) T. Perform IL-10 assay using anti-human IL-10 antibody coated beads, as described by the manufacturer (Linco Research Inc., St. Charles, Mo.).

Compound: CCC(O)(CC)COc1ccc(C(CC)(CC)c2ccc(C(=O)NCC(=O)O)c(C)c2)cc1C [Ex. 3, (4-{1-ethyl-1-[4-(2-ethyl-2-hydroxy-butoxy)-3-methyl-phenyl]-propyl}-2-methyl-benzoylamino)-acetic acid]
- pEC50 (rat osteocalcin promoter): 7.71
- pEC50 (rat osteocalcin promoter; Rattus norvegicus, 48 h): 7.77
- pEC50 (VDR (pGal4-VDR-LBD)): 6.09
- pIC50 [1]: 6.14

Compound: CCC(CC)(c1ccc(OCC(O)(C(C)C)C(C)C)c(C)c1)c1ccc(C(=O)NCC(=O)O)c(C)c1 [Ex. 4, (4-{1-Ethyl-1-[4-(2-hydroxy-2-isopropyl-3-methyl-butoxy)-3-methyl-phenyl]-propyl}-2-methyl-benzoylamino)-acetic acid]
- pEC50 (rat osteocalcin promoter): 7.56
- pEC50 (rat osteocalcin promoter; Rattus norvegicus, 48 h): 7.68
- pEC50 (VDR (pGal4-VDR-LBD)): 6.01
- pIC50 [1]: 6.32
